Drawing on ChEMBL document CHEMBL5726504, “Substituted cyclopentanes, tetrahydrofuranes and pyrrolidines as orexin receptor antagonists” (2017), this text covers IC50 for one compound.

In the assay the target is T1, Orexin/Hypocretin receptor type 1 (Homo sapiens, UniProt O43613).
T1 sequence (O43613 whole entry): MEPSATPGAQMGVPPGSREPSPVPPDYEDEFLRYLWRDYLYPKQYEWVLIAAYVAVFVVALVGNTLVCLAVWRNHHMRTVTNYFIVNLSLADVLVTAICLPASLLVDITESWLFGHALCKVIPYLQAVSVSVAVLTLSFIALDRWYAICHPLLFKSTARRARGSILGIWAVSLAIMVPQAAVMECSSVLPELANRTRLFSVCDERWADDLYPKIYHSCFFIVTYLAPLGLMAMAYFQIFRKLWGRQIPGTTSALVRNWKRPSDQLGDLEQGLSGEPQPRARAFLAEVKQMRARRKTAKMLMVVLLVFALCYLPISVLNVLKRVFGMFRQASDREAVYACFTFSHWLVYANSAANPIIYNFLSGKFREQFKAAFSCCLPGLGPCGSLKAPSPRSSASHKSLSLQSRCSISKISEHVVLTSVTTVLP
Description: FLIPR Assay: Orexin antagonist activity was determined by measuring changes in intracellular calcium levels using a Ca2+ sensitive fluorescent dye. The changes in fluorescent signal were monitored by Fluorescent Imaging Plate Reader (FLIPR) technology available from Molecular Devices, LLC, U.S.A. Orexin mediated increases in intracellular Ca2+ concentration were readily detected upon activation with orexin-A. Twenty-four hours prior to the assay, RBL-2H3 cells stably expressing either human orexin receptor 1 or human orexin receptor 2 were seeded in cell culture medium in black, clear-bottom 384-well plates (commercially available from Corning Inc., U.S.A.) and grown overnight at 37° C., 5% CO2. On the day of the assay, cell culture media was removed and cells were loaded with Calcium 5 Dye (commercially sold by Molecular Devices, LLC, U.S.A.) for 1 hour at 37° C., 5% CO2. Test compounds (at 10 point half log concentration response curves from 10 uM) were added to cells for 15 minutes prior to the addition of orexin-A to all wells, to achieve a final concentration that produces approximately an 80% maximal response. In kind it is cell-based. (In general: A change in cytosolic calcium serves as a functional read-out for many receptors and channels.)

A word on the IC50: it is the concentration needed to halve the response being measured. In the case of `COc1ccc(Br)nc1C(=O)N[C@H]1CCC[C@@H]1Nc1nc2ccc(F)cc2s1`, the IC50 is 128 nM.
